Assay results: ChEMBL document CHEMBL1201862, “PubChem BioAssay data set” (2004)
The source made the active and inactive calls.

Tests used:
Large T antigen = Large T antigen (Simian virus 40, UniProt P03070); type: functional, Betapolyomavirus macacae;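 note: Confirmatory-stage PubChem screen for compounds that inhibit SV40 T antigen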
[1] = target: T1, Rac GTPase-activating protein 1 (Homo sapiens, UniProt Q9H0H5); experiment: MgcRacGAP GTPase-activating activity inhibitors, confirmation, biochemical, ADP Hunter fluorescence, primary and confirmatory (AID 624330); type: functional
T1 sequence (Q9H0H5 whole entry): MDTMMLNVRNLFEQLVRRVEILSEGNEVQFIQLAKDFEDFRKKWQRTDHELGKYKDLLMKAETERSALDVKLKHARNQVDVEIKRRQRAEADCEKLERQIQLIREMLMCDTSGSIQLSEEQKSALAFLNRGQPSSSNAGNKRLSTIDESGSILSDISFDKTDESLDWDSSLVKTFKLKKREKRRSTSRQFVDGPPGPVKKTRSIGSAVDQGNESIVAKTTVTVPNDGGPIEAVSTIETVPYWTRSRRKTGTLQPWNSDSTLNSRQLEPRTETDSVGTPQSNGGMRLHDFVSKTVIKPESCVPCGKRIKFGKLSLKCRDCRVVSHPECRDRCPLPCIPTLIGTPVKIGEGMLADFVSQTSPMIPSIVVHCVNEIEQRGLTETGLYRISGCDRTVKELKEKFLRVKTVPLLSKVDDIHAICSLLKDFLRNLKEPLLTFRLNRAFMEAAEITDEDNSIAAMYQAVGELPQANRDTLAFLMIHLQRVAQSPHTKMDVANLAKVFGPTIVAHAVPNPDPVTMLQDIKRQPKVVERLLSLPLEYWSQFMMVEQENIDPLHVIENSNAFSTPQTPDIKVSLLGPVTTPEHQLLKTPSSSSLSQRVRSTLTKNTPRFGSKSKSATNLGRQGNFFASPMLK

Genome polyprotein = Genome polyprotein (dengue virus type 2, UniProt P29990); experiment: Dengue-2 NS5 methyltransferase inhibitors, primary screen, biochemical, confirmation dose response (AID 588689); type: functional
Sequence of Genome polyprotein (P29990 2492-3391 limits assumed): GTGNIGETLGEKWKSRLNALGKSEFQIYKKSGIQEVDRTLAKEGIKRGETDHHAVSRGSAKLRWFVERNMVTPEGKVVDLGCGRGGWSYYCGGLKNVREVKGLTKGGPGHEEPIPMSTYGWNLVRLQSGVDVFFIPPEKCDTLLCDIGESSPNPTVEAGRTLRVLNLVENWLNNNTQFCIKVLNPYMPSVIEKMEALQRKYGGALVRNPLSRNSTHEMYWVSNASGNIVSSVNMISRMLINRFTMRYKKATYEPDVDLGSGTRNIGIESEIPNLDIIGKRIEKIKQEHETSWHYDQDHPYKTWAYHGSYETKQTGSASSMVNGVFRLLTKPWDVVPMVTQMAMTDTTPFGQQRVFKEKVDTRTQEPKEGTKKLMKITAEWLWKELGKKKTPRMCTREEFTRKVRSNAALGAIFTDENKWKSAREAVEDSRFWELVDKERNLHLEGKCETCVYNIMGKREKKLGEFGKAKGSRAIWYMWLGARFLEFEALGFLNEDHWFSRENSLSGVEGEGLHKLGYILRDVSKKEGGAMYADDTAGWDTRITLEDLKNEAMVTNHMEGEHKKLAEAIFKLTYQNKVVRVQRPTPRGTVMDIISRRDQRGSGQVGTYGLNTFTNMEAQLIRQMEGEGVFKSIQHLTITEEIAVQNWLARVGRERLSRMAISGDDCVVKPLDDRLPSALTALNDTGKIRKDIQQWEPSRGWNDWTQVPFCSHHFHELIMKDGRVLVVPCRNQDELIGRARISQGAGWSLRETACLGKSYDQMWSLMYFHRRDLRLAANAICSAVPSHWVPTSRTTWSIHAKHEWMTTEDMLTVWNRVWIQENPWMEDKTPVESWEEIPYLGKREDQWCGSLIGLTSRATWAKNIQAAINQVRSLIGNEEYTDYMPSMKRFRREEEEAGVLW

Protein skinhead-1 = target: T2, Protein skinhead-1 (Caenorhabditis elegans, UniProt P34707); type: functional
T2 sequence (P34707 whole entry): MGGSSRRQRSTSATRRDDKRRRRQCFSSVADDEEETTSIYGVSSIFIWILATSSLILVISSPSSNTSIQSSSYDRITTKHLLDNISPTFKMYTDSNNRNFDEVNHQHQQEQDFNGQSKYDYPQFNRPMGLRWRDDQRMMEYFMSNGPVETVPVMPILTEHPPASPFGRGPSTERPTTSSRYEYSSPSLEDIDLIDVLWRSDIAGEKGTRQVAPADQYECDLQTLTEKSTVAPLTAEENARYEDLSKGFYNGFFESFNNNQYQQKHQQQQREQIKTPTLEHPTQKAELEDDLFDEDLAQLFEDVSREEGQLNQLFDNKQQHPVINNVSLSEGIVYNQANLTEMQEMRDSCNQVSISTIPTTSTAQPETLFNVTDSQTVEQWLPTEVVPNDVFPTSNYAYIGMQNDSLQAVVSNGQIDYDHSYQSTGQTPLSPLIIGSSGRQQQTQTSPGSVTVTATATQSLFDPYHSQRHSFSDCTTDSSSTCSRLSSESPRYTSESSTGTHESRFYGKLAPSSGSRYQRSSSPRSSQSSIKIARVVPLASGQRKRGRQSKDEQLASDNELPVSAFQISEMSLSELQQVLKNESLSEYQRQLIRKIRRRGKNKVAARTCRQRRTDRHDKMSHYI

[2] = target: T3, Replicative DNA helicase DnaB (Mycobacterium tuberculosis, UniProt P9WMR3); experiment: DnaB intein splicing inhibitors, dose response, biochemical, cell-free fluorescence (AID 449749); type: functional
T3 sequence (P9WMR3 whole entry): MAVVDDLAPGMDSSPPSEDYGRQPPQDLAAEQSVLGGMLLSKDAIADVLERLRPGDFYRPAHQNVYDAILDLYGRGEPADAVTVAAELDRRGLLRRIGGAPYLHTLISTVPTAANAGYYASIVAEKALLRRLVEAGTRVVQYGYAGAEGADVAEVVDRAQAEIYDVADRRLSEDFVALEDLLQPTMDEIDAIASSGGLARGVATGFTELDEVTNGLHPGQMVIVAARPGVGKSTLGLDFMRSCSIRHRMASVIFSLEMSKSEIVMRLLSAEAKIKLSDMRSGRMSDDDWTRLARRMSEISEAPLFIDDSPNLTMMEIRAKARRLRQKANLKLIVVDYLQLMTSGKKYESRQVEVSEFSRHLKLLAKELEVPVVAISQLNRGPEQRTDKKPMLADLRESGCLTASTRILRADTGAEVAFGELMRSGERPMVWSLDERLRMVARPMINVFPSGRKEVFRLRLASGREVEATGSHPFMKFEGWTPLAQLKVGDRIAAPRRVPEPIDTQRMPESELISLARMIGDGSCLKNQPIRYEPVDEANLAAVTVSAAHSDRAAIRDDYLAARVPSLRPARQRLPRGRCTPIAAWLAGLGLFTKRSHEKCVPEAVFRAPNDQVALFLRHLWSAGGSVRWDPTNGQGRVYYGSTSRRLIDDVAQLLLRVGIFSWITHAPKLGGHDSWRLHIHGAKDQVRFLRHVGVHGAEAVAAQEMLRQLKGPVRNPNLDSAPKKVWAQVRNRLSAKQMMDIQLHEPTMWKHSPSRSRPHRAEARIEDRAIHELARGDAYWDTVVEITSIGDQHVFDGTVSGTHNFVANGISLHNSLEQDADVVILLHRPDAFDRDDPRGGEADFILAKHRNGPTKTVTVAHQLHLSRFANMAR

Protein RecA = target: T4, Protein RecA (Mycobacterium tuberculosis, UniProt P9WHJ3); experiment: Fluorescence Cell-Free Homogeneous Dose Retest to Identify Inhibitors of RecA-Intein Splicing Activity. [Related pubchem assays (depositor defined):AID2097, AID2223, AID489010, AID492950]; type: functional
T4 sequence (P9WHJ3 whole entry): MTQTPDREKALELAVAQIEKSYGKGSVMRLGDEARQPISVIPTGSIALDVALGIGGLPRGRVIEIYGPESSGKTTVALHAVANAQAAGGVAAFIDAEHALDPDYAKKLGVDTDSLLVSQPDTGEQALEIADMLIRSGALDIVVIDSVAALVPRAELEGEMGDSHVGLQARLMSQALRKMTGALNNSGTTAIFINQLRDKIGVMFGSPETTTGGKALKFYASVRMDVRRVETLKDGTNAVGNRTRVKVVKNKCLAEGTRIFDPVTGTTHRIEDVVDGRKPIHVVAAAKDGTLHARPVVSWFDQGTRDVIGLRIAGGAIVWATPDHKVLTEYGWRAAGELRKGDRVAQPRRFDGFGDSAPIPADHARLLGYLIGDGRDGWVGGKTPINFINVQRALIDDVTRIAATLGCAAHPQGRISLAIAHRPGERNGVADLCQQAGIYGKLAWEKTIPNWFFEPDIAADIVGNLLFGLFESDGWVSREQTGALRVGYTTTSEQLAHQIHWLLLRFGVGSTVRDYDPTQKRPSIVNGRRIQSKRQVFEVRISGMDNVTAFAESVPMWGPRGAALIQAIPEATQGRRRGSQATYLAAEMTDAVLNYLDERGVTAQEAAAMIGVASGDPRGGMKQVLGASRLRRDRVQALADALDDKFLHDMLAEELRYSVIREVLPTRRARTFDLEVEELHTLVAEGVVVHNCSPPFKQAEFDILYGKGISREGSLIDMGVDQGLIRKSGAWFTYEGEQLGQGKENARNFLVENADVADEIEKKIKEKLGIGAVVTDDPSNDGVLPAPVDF

[3] = target: T5, RNA-binding protein pos-1 (Caenorhabditis elegans, UniProt G5EF15); experiment: inhibitors of POS-1/mex-3 RNA binding, dose response, biochemical, fluorescence polarization (AID 1964);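 note: purified POS-1 fused to maltose binding protein made in E. coli; potency of compounds blocking POS-1 binding to fluorescent RNA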
T5 sequence (G5EF15 whole entry): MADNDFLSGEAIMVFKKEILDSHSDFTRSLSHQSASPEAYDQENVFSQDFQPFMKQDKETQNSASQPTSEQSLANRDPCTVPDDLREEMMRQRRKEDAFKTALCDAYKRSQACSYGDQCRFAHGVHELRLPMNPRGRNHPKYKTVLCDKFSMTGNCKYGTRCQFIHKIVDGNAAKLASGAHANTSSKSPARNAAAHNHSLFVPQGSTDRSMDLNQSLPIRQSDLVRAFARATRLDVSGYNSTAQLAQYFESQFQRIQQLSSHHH

[4] = Luminescence Cell-Based Dose Confirmation HTS to Identify Activators of 5'UTR Stem-Loop Driven Alpha-Synuclein mRNA Translation in H4 Neuroglioblastoma Cells. [Related pubchem assays: 1829 (Project Summary), 1814 (Primary HTS)]; type: functional
[5] = Luminescence Cell-Based Dose Response HTS to Identify Activators of Luciferase Translation or Activity in H4 […] Cells. [Related pubchem assays: 1829 (Project Summary), 1814 (Primary HTS)]; type: functional
H4 = experiment: Luminescence Cell-Based Dose Response HTS to Identify Activators of 5'UTR Stem-Loop Driven Prion Protein mRNA Translation in H4 Neuroglioblastoma Cells. [Related pubchem assays: 1829 (Project Summary), 1814 (Primary HTS)]; type: functional; details: Homo sapiens
[6] = target: T6, Zinc finger protein mex-5 (Caenorhabditis elegans, UniProt Q9XUB2); experiment: MEX-5/TCR-2 RNA interaction inhibitors, dose response, biochemical, C. elegans, fluorescence polarization (AID 1960)
T6 sequence (Q9XUB2 whole entry): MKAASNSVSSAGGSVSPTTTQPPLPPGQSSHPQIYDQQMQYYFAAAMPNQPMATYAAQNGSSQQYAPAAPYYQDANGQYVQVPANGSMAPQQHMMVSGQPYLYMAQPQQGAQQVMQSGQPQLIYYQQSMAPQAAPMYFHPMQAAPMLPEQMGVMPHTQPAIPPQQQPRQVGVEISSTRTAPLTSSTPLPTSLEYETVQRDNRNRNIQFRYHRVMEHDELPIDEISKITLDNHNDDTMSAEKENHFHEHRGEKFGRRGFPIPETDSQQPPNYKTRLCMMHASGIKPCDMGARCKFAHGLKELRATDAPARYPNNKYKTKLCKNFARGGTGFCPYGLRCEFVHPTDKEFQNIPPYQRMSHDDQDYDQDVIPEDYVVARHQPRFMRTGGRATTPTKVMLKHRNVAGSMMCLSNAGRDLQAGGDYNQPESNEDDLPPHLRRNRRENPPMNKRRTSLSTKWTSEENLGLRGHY

[7] = target: T7, Corticotropin-releasing factor receptor 2/Corticotropin-releasing factor-binding protein (Homo sapiens, UniProt P24387+Q13324); experiment: activators of CRF receptor 2 with binding protein – uHTS hits, confirmation (AID 602473); type: functional; details: read-out: EC50_Mean
T7 sequence (Q13324 whole entry): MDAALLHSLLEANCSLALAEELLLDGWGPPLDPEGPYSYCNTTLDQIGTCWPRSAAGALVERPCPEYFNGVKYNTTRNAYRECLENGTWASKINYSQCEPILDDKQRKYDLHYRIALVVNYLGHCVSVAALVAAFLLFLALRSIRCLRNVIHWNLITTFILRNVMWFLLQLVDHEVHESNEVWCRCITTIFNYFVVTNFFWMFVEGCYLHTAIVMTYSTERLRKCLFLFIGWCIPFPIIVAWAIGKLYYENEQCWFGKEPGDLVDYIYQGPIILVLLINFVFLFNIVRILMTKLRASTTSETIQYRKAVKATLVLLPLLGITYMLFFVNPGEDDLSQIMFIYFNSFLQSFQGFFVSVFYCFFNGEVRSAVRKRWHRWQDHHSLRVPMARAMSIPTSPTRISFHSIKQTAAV
T7 sequence (P24387 whole entry): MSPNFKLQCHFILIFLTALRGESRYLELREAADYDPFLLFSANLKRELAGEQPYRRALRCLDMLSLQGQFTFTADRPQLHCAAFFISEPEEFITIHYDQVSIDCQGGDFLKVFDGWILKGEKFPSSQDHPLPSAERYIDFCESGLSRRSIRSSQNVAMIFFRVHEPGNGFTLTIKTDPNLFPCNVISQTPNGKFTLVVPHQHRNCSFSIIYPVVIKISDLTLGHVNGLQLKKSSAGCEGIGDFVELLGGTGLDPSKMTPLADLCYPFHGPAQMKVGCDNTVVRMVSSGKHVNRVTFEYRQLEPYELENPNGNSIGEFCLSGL

[8] = target: FAD-linked sulfhydryl oxidase ALR (Homo sapiens, UniProt P55789); experiment: inhibitors of human ALR sulfhydryl oxidase, dose response, biochemical, H2O2 detection, luminescence, cherry-pick (AID 493248)
Sequence of FAD-linked sulfhydryl oxidase ALR (P55789 whole entry): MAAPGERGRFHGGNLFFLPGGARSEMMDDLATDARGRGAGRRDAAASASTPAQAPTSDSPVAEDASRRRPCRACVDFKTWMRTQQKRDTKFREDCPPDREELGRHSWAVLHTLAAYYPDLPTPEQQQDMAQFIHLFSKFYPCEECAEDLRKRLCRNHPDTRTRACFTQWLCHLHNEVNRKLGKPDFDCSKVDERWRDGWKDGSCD

Sequence of Large T antigen (P03070 whole entry): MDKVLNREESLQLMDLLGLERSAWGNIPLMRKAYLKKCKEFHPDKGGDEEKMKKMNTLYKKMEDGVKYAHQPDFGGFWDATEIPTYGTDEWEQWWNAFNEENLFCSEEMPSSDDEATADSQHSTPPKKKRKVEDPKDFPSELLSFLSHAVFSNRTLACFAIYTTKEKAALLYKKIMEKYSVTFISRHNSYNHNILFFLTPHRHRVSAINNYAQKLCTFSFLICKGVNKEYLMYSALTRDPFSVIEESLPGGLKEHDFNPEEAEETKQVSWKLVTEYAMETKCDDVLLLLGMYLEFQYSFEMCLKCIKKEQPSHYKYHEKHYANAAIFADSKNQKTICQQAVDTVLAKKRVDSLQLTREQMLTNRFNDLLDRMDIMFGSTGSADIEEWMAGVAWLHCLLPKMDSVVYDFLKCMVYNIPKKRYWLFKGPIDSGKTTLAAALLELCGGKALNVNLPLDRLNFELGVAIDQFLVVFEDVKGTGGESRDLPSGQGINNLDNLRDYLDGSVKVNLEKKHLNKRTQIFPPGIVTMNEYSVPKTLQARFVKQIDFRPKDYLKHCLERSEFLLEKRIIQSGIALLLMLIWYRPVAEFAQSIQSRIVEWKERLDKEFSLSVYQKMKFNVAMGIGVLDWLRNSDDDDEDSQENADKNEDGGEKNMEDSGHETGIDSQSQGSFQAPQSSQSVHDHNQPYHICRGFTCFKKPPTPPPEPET

With `COc1cc(/C=N/NC(=O)c2cnccn2)ccc1O` the IC50 (Large T antigen) was 5.52 µM (active) and the IC50 [1] was 20.3 µM (active).

For `CN1C(=O)C(=Cc2ccccc2Oc2ccc(Cl)cc2)C(=O)N(C)C1=O`, the IC50 (Genome polyprotein) was 41.5 µM (active).

With `O=C(Nc1ccc(O)cc1)C1CCCO1` (stereo not drawn) the IC50 (Large T antigen) was 28.1 µM (active).

In the case of `Clc1cc(NCc2cccs2)ccc1N1CCOCC1`, the IC50 (Large T antigen) is reported as 65.2 µM (active) and the IC50 (Protein skinhead-1) is reported as > 100 µM (inactive).

In the case of `CN(C)c1ccc(/C=C/c2cc[n+]([O-])cc2)cc1`, the IC50 (Large T antigen) is reported as 11.4 µM (active).

In the case of `O=C1C(Cl)=C(N2CCOCC2)C(=O)N1c1ccc(Br)cc1`, the AC50 [2] is reported as 4.11 µM (active), the EC50 (Protein RecA) is reported as 2.11 µM (active) and the IC50 (Genome polyprotein) is reported as 36.2 µM (active).

With `Cc1cccc(-n2c(C)cc(C=C3C(=O)c4ccccc4C3=O)c2C)c1` the EC50 [3] was 46.6 µM (active), the EC50 [4] was 54.2 µM (active) and the EC50 [5] was 11.4 µM (active). For the same compound, the EC50 (H4) was 7.1 µM (active), the EC50 [6] was 34.7 µM (inconclusive) and the EC50 [7] was 12.9 µM (active).

In the case of `COc1ccc(NC2CCCN(C(=O)CCn3cccn3)C2)cc1` (stereo not drawn), the IC50 (Large T antigen) is reported as 9.68 µM (active) and the AC50 [8] is reported as 2.78 µM (active).
